In patent USRE49022E1, “Insecticidal compounds” (SYNGENTA PARTICIPATIONS AG, priority 2013, dated 2022):

What was measured:
Type in all cases: in vivo
[1] = tested on: Plutella xylostella (Diamond Back Moth); assay: Plutella xylostella, artificial diet MTP test; details: 144 h, 200 ppm (concentration in well 18 ppm), L2 larvae, 6 days
Description: 24-well microtiter plate (MTP) with artificial diet was treated with test solutions at an application rate of 200 ppm (concentration in well 18 ppm) by pipetting. After drying, the MTP's were infested with L2 larvae (7-12 per well). After an incubation period of 6 days, samples were checked for larval mortality and growth regulation. The following compound gave at least 80% mortality of Plutella xylostella: 1, 2, 3, 4, 5, 6, 7, 8, 9, 10, 11, 12, 13, 14, 15, 16, 17, 18, 19, 20, 21, 22, 23, 24, 25, 26, 27, 28, 29, 30, 31, 32, 33, 34, 35, 36, 37, 38, 39, 40, 41, 42, 43, 44, 45, 46, 47, 48, 49, 50.

[2] = tested on: Diabrotica balteata (Corn Root Worm); assay: Diabrotica balteata, artificial diet MTP test; details: 120 h, 200 ppm (concentration in well 18 ppm), L2 larvae, larval mortality after 5 days
Description: A 24-well microtiter plate (MTP) with artificial diet was treated with test solutions at an application rate of 200 ppm (concentration in well 18 ppm) by pipetting. After drying, the MTP's were infested with L2 larvae (6-10 per well). After an incubation period of 5 days, samples were checked for larval mortality The following compound gave at least 80% control of Diabrotica balteata: 1, 2, 3, 4, 5, 6, 7, 8, 9, 10, 11, 12, 13, 14, 15, 16, 17, 18, 19, 20, 21, 22, 23, 24, 25, 26, 27, 28, 29, 30, 31, 32, 33, 34, 35, 36, 37, 38, 39, 40, 41, 42, 43, 44, 45, 46, 47, 48, 49, 50, 51.

[3] = tested on: Thrips tabaci (Onion Thrips); assay: Thrips tabaci, sunflower leaf disc spray test; details: foliar, 168 h, sprayed sunflower leaf discs, mortality after 7 days
[4] = tested on: Tetranychus urticae (Two-Spotted Spider Mite); assay: Tetranychus urticae, bean leaf disc spray test; details: foliar, 192 h, sprayed bean leaf discs, mite populations of mixed ages, 8 days
From the text: Bean leaf discs on agar in 24-well microtiter plates were sprayed with test solutions at an application rate of 200 ppm. After drying, the leaf discs are infested with mite populations of mixed ages. 8 days later, discs were checked for mortality.

[5] = tested on: Myzus persicae (Green Peach Aphid); assay: Myzus persicae, sucrose solution / Parafilm test; details: 120 h, mixed with sucrose solution under Parafilm, mortality 5 days after infestation
From the text: Test compounds were applied by pipette into 24 well plates and mixed with Sucrose solution. Application rate: 12.5 ppm. The plates were closed with a stretched Parafilm. A plastic stencil with 24 holes is placed onto the plate and infested pea seedlings were placed directly on the Parafilm. The infested plate is closed with a gel blotting paper and another plastic stencil and then turned upside down. 5 days after infestation the samples were checked on mortality.

[6] = tested on: Myzus persicae (Green Peach Aphid); assay: Myzus persicae, sunflower leaf disc spray test; details: foliar, 144 h, sprayed sunflower leaf discs, aphid population of mixed ages, mortality after 6 DAT
Description: Sunflower leaf discs were placed on agar in a 24-well microtiter plate and sprayed with test solutions at an application rate of 200 ppm. After drying, the leaf discs were infested with an aphid population of mixed ages. After an incubation period of 6 DAT, samples were checked for mortality.

[7] = tested on: Spodoptera littoralis (Egyptian Cotton Leafworm); assay: Spodoptera littoralis, cotton leaf disc spray test; details: foliar, 72 h, sprayed cotton leaf discs, L1 larvae, 3 days after treatment
From the text: Cotton leaf discs were placed on agar in a 24-well microtiter plate and sprayed with test solutions at an application rate of 200 ppm. After drying, the leaf discs were infested with 5 L1 larvae. The samples were checked for mortality 3 days after treatment (DAT).

[8] = tested on: Spodoptera littoralis (Egyptian Cotton Leaf Worm); assay: Spodoptera littoralis, agar / lettuce root uptake test; details: 144 h, mixed with agar, uptake by lettuce roots, mortality 6 days after infestation
From the text: Test compounds were applied by pipette into 24 well plates and mixed with agar. Application rate: 12.5 ppm. Lettuce seeds were placed on the agar and the multi well plate is closed by another plate which contains also agar. After 7 days the roots have absorbed the compound and the lettuce has grown into the lid plate. The lettuce leafs were now cut off into the lid plate. Spodoptera eggs were pipetted through a plastic stencil on a humid gel blotting paper and the plate closed with it. The samples are checked for mortality 6 days after infestation.

COc1c(NC(=O)c2ccncc2)cccc1C(=O)Nc1c(Cl)cc(C(F)(C(F)(F)F)C(F)(F)Br)cc1Br (centres unmarked) [Compound 3, N-[3-[[2-bromo-4-[1-[bromo(difluoro)methyl]-1,2,2,2-tetrafluoro-ethyl]-6-chloro-phenyl]carbamoyl]-2-methoxy-phenyl]pyridine-4-carboxamide]
≥ 80%: mortality at 200 ppm [1] | pest or weed control at 200 ppm [2] | pest or weed control at 200 ppm [3] | mortality at 200 ppm [4] | pest or weed control at 12.5 ppm [5] | pest or weed control at 200 ppm [6] | mortality at 200 ppm [7] | pest or weed control at 12.5 ppm [8]

CCN(C(=O)c1cc[n+]([O-])cc1)c1cccc(C(=O)Nc2c(Br)cc(C(F)(C(F)(F)F)C(F)(F)Cl)cc2OC(F)F)c1OC (centres unmarked) [Compound 44, N-[3-[[2-bromo-4-[1-[chloro(difluoro)methyl]-1,2,2,2-tetrafluoro-ethyl]-6-(difluoromethoxy)phenyl]carbamoyl]-2-methoxy-phenyl]-N-ethyl-1-oxido-pyridin-1-ium-4-carboxamide]
≥ 80%: mortality at 200 ppm [1] | pest or weed control at 200 ppm [2] | pest or weed control at 200 ppm [3] | mortality at 200 ppm [4] | pest or weed control at 12.5 ppm [5] | pest or weed control at 200 ppm [6] | mortality at 200 ppm [7] | pest or weed control at 12.5 ppm [8]

CCN(C(=O)c1ccc[n+]([O-])c1)c1cccc(C(=O)Nc2c(Br)cc(C(F)(C(F)(F)F)C(F)(F)Cl)cc2OC(F)F)c1F (centres unmarked) [Compound 47]
≥ 80%: mortality at 200 ppm [1] | pest or weed control at 200 ppm [2] | pest or weed control at 200 ppm [3] | mortality at 200 ppm [4] | pest or weed control at 12.5 ppm [5] | pest or weed control at 200 ppm [6] | mortality at 200 ppm [7] | pest or weed control at 12.5 ppm [8]

COc1c(NC(=O)c2cccnc2)cccc1C(=O)Nc1c(Br)cc(C(F)(C(F)(F)F)C(F)(F)Cl)cc1OC(F)F (centres unmarked) [Compound 15]
≥ 80%: mortality at 200 ppm [1] | pest or weed control at 200 ppm [2] | pest or weed control at 200 ppm [3] | mortality at 200 ppm [4] | pest or weed control at 12.5 ppm [5] | pest or weed control at 200 ppm [6] | mortality at 200 ppm [7] | pest or weed control at 12.5 ppm [8]

CCN(C(=O)c1ccc(C#N)cc1)c1cccc(C(=O)Nc2c(Cl)cc(C(F)(C(F)(F)F)C(F)(F)Br)cc2Br)c1OC (centres unmarked) [Compound 1, N-[2-bromo-4-[1-[bromo(difluoro)methyl]-1,2,2,2-tetrafluoro-ethyl]-6-chloro-phenyl]-3-[(4-cyanobenzoyl)-ethyl-amino]-2-methoxy-benzamide]
≥ 80%: mortality at 200 ppm [1] | pest or weed control at 200 ppm [2] | pest or weed control at 200 ppm [3] | mortality at 200 ppm [4] | pest or weed control at 12.5 ppm [5] | pest or weed control at 200 ppm [6] | mortality at 200 ppm [7] | pest or weed control at 12.5 ppm [8]

CCN(C(=O)c1ccncc1)c1cccc(C(=O)Nc2c(Br)cc(C(F)(C(F)(F)F)C(F)(F)Cl)cc2OC(F)F)c1F (centres unmarked) [Compound 35]
≥ 80%: mortality at 200 ppm [1] | pest or weed control at 200 ppm [2] | pest or weed control at 200 ppm [3] | mortality at 200 ppm [4] | pest or weed control at 12.5 ppm [5] | pest or weed control at 200 ppm [6] | mortality at 200 ppm [7] | pest or weed control at 12.5 ppm [8]

CCN(C(=O)c1ccc(C#N)cc1)c1cccc(C(=O)Nc2c(Br)cc(C(F)(C(F)(F)F)C(F)(F)Cl)cc2OC(F)F)c1OC (centres unmarked) [Compound 32]
≥ 80%: mortality at 200 ppm [1] | pest or weed control at 200 ppm [2] | pest or weed control at 200 ppm [3] | mortality at 200 ppm [4] | pest or weed control at 12.5 ppm [5] | pest or weed control at 200 ppm [6] | mortality at 200 ppm [7] | pest or weed control at 12.5 ppm [8]

COc1c(NC(=O)c2cc[n+]([O-])cc2)cccc1C(=O)Nc1c(Br)cc(C(F)(C(F)(F)F)C(F)(F)Cl)cc1OC(F)F (centres unmarked) [Compound 25]
≥ 80%: mortality at 200 ppm [1] | pest or weed control at 200 ppm [2] | pest or weed control at 200 ppm [3] | mortality at 200 ppm [4] | pest or weed control at 12.5 ppm [5] | pest or weed control at 200 ppm [6] | mortality at 200 ppm [7] | pest or weed control at 12.5 ppm [8]

N#Cc1ccc(C(=O)Nc2cccc(C(=O)Nc3c(Br)cc(C(F)(C(F)(F)F)C(F)(F)Cl)cc3OC(F)F)c2F)cc1 (centres unmarked) [Compound 13]
≥ 80%: mortality at 200 ppm [1] | pest or weed control at 200 ppm [2] | pest or weed control at 200 ppm [3] | mortality at 200 ppm [4] | pest or weed control at 12.5 ppm [5] | pest or weed control at 200 ppm [6] | mortality at 200 ppm [7] | pest or weed control at 12.5 ppm [8]

CCN(C(=O)c1cccnc1)c1cccc(C(=O)Nc2c(Br)cc(C(F)(C(F)(F)F)C(F)(F)Cl)cc2OC(F)F)c1OC (centres unmarked) [Compound 40]
≥ 80%: mortality at 200 ppm [1] | pest or weed control at 200 ppm [2] | pest or weed control at 200 ppm [3] | mortality at 200 ppm [4] | pest or weed control at 12.5 ppm [5] | pest or weed control at 200 ppm [6] | mortality at 200 ppm [7] | pest or weed control at 12.5 ppm [8]

CCc1cc(C(F)(C(F)(F)F)C(F)(F)Cl)cc(Br)c1NC(=O)c1cccc(N(CC)C(=O)c2ccc[n+]([O-])c2)c1OC (centres unmarked) [Compound 50]
≥ 80%: mortality at 200 ppm [1] | pest or weed control at 200 ppm [2] | pest or weed control at 200 ppm [3] | mortality at 200 ppm [4] | pest or weed control at 12.5 ppm [5] | pest or weed control at 200 ppm [6] | mortality at 200 ppm [7] | pest or weed control at 12.5 ppm [8]

COc1c(NC(=O)c2ccc[n+]([O-])c2)cccc1C(=O)Nc1c(Br)cc(C(F)(C(F)(F)F)C(F)(F)Cl)cc1OC(F)F (centres unmarked) [Compound 26]
≥ 80%: mortality at 200 ppm [1] | pest or weed control at 200 ppm [2] | pest or weed control at 200 ppm [3] | mortality at 200 ppm [4] | pest or weed control at 12.5 ppm [5] | pest or weed control at 200 ppm [6] | mortality at 200 ppm [7] | pest or weed control at 12.5 ppm [8]

CCN(C(=O)c1ccc(C#N)cc1)c1cccc(C(=O)Nc2c(Br)cc(C(F)(C(F)(F)F)C(F)(F)Cl)cc2OC(F)F)c1F (centres unmarked) [Compound 31]
≥ 80%: mortality at 200 ppm [1] | pest or weed control at 200 ppm [2] | pest or weed control at 200 ppm [3] | mortality at 200 ppm [4] | pest or weed control at 12.5 ppm [5] | pest or weed control at 200 ppm [6] | mortality at 200 ppm [7] | pest or weed control at 12.5 ppm [8]

O=C(Nc1cccc(C(=O)Nc2c(Br)cc(C(F)(C(F)(F)F)C(F)(F)Br)cc2OC(F)F)c1F)c1cc[n+]([O-])cc1 (centres unmarked) [Compound 6]
≥ 80%: mortality at 200 ppm [1] | pest or weed control at 200 ppm [2] | pest or weed control at 200 ppm [3] | mortality at 200 ppm [4] | pest or weed control at 12.5 ppm [5] | pest or weed control at 200 ppm [6] | mortality at 200 ppm [7] | pest or weed control at 12.5 ppm [8]

CCN(C(=O)c1cccnc1)c1cccc(C(=O)Nc2c(Br)cc(C(F)(C(F)(F)F)C(F)(F)Cl)cc2OC(F)F)c1F (centres unmarked) [Compound 39]
≥ 80%: mortality at 200 ppm [1] | pest or weed control at 200 ppm [2] | pest or weed control at 200 ppm [3] | mortality at 200 ppm [4] | pest or weed control at 12.5 ppm [5] | pest or weed control at 200 ppm [6] | mortality at 200 ppm [7] | pest or weed control at 12.5 ppm [8]

CCc1cc(C(F)(C(F)(F)F)C(F)(F)Cl)cc(Br)c1NC(=O)c1cccc(N(CC)C(=O)c2cccnc2)c1F (centres unmarked) [Compound 41]
≥ 80%: mortality at 200 ppm [1] | pest or weed control at 200 ppm [2] | pest or weed control at 200 ppm [3] | mortality at 200 ppm [4] | pest or weed control at 12.5 ppm [5] | pest or weed control at 200 ppm [6] | mortality at 200 ppm [7] | pest or weed control at 12.5 ppm [8]
